The values that follow come from patent publication US10214535B2, “Hydroxmethyl piperidine orexin receptor antagonists” (MERCK SHARP & DOHME CORP., priority 2014, dated 2019).

One may read the IC50 as the concentration needed to halve the response being measured.

Read-outs that look alike come from different tables or passages of the source.

In one assay the target is human orexin-2 receptor (Homo sapiens (Human), UniProt O43614). Nature of the assay: hOX2R FLIPR Ca2+ flux assay. The format is cell-based. Conditions: CHO cells expressing the human orexin-2 receptor; agonist 70 pM Ala-6,12 orexin-A. How it is done:
In a typical experiment the OX1 and OX2 receptor antagonistic activity of the compounds of the present invention was determined in accordance with the following experimental method. For intracellular calcium measurements, Chinese hamster ovary (CHO) cells expressing the rat orexin-1 receptor or the human orexin-2 receptor, are grown in Iscove's modified DMEM containing 2 mM L-glutamine, […], 1% hypoxanthine-thymidine supplement, 100 U/ml penicillin, 100 μg/ml streptomycin and 10% heat-inactivated fetal calf serum (FCS). The cells are seeded at 20,000 cells/well into Becton-Dickinson black 384-well clear bottom sterile plates coated with poly-D-lysine. All reagents were from GIBCO-Invitrogen Corp. The seeded plates are incubated overnight at 37° C. and 5% CO2. Ala-6,12 human orexin-A as the agonist is prepared as a 1 mM stock solution in 1% bovine serum albumin (BSA) and diluted in assay buffer (HBSS containing 20 mM HEPES, 0.1% BSA and 2.5 mM probenecid, pH7.4) for use in the assay at a final concentration of 70 pM. Test compounds are prepared as 10 mM stock solution in DMSO, then diluted in 384-well plates, first in DMSO, then assay buffer. On the day of the assay, cells are washed 3 times with 100 μl assay buffer and then incubated for 60 min (37° C., 5% CO2) in 60 μl assay buffer containing 1 μM Fluo-4AM ester, 0.02% pluronic acid, and 1% BSA. The dye loading solution is then aspirated and cells are washed 3 times with 100 μl assay buffer. 30 μl of that same buffer is left in each well. Within the Fluorescent Imaging Plate Reader (FLIPR, Molecular Devices), test compounds are added to the plate in a volume of 25 μl, incubated for 5 min and finally 25 μl of agonist is added. Fluorescence is measured for each well at 1 second intervals for 5 minutes and the height of each fluorescence peak is compared to the height of the fluorescence peak induced by 70 pM Ala-6,12 orexin-A with buffer in place of antagonist. For each antagonist, IC50 value (the concentration of compound needed to inhibit 50% of the agonist response) is determined. Alternatively, compound potency can be assessed by a radioligand binding assay (described in Bergman et. al. Bioorg. Med. Chem. Lett. 2008, 18, 1425-1430) in which the inhibition constant (Ki) is determined in membranes prepared from CHO cells expressing either the OX1 or OX2 receptor. The intrinsic orexin receptor antagonist activity of a compound which may be used in the present invention may be determined by these assays.
For orientation: Calcium assays in cells follow changes in intracellular calcium, usually with a dye or a luminescent sensor.

The next assay has as its target hOX1R (Homo sapiens, UniProt O43613). The experiment in a line: hOX1R FLIPR Ca2+ flux assay. The format is cell-based.
Where [1] appears, read: CHO cells expressing orexin-1 receptor, agonist 70 pM Ala-6,12 orexin-A, read-out: hOX1R FLIPR IC50.

Chain of human orexin-2 receptor (O43614 whole entry): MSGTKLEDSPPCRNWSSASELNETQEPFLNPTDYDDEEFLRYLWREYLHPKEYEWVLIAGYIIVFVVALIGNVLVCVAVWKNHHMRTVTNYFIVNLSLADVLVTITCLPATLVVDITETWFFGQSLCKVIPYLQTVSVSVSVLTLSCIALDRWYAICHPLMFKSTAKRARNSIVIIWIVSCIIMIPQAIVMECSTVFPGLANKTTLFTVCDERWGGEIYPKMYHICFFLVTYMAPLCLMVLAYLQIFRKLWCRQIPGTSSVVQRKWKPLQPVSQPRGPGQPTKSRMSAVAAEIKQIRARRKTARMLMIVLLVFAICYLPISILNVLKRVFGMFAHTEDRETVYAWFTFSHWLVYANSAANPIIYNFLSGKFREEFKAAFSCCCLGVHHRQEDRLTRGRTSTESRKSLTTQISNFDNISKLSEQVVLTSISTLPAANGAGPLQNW

As for `COC(=O)c1c(OC)cccc1O[C@@H]1CC[C@@H](CO)N(C(=O)c2ccccc2-n2nccn2)C1` [Example 1, Methyl 2-{[(3R,6S)-6-(hydroxymethyl)-1-{[2-(2H-1,2,3-triazol-2-yl)phenyl]carbonyl}-piperidin-3-yl]oxy}-6-methoxybenzoate], the IC50 on human orexin-2 receptor was 198 nM; at hOX1R (setting [1]) it was over 10000 nM.

For `CC1(C)OC(=O)c2c1ccnc2O[C@@H]1CC[C@@H](CO)N(C(=O)c2ccccc2-n2nccn2)C1` [Example 2, 4-{[(3R,6S)-6-(Hydroxymethyl)-1-{[2-(2H-1,2,3-triazol-2-yl)phenyl]carbonyl}piperidin-3-yl]oxy}-1,1-dimethylfuro[3,4-c]pyridin-3(1H)-one], the results for the IC50 at human orexin-2 receptor and at hOX1R (setting [1]) were 21 nM and over 10000 nM, respectively.

Take `N#Cc1ccnc(O[C@@H]2CC[C@@H](CO)N(C(=O)c3ccccc3-n3nccn3)C2)c1` [Example 3, 2-{[(3R,6S)-6-(hydroxymethyl)-1-{[2-(2H-1,2,3-triazol-2-yl)phenyl]carbonyl}piperidin-3-yl]oxy}pyridine-4-carbonitrile]: the IC50 on human orexin-2 receptor was 17 nM; on hOX1R (setting [1]), over 10000 nM.

Consider `COC(=O)c1c(C#N)cccc1O[C@@H]1CC[C@@H](CO)N(C(=O)c2ccccc2-n2nccn2)C1` [Example 4, methyl 2-cyano-6-{[(3R,6S)-6-(hydroxymethyl)-1-{[2-(2H-1,2,3-triazol-2-yl)phenyl]carbonyl}piperidin-3-yl]oxy} benzoate], for which the IC50 at human orexin-2 receptor is 49 nM; on hOX1R (setting [1]), over 10000 nM.

Consider `Cc1ccnc(O[C@@H]2CC[C@@H](CO)N(C(=O)c3ccccc3-n3nccn3)C2)c1` [Example 5, [(2S,5R)-5-[(4-methylpyridin-2-yl)oxy]-1-{[2-(2H-1,2,3-triazol-2-yl)phenyl]carbonyl}piperidin-2-yl]methanol], for which the IC50 amounted to 18 nM at human orexin-2 receptor and 1710 nM on hOX1R (setting [1]).

For `O=C(c1ccccc1-n1nccn1)N1C[C@H](Oc2cc(OCC(F)F)ccn2)CC[C@H]1CO` [Example 6, [(2S,5R)-5-{[4-(2,2-difluoroethoxy)pyridin-2-yl]oxy}-1-{[2-(2H-1,2,3-triazol-2-yl)phenyl]carbonyl}piperidin-2-yl]methanol], the values for the IC50 at human orexin-2 receptor and against hOX1R were 60 nM and over 10000 nM, respectively.

Turning to `Cc1c(C#N)ccnc1O[C@@H]1CC[C@@H](CO)N(C(=O)c2ccccc2-n2nccn2)C1` [Example 7, 2-{[(3R,6S)-6-(hydroxymethyl)-1-{[2-(2H-1,2,3-triazol-2-yl)phenyl]carbonyl}piperidin-3-yl]oxy}-3-methylpyridine-4-carbonitrile], the IC50 turned out to be 8 nM on human orexin-2 receptor and 1780 nM at hOX1R (setting [1]).

Consider `CCOc1ccccc1C(=O)N1C[C@H](Oc2nccc(C#N)c2OC)CC[C@H]1CO` [Example 10, 2-{[(3R,6S)-1-[(2-Ethoxyphenyl)carbonyl]-6-(hydroxymethyl)piperidin-3-yl]oxy}-3-methoxypyridine-4-carbonitrile], for which the IC50 is 12 nM at human orexin-2 receptor and over 10000 nM at hOX1R (setting [1]).

For the compound `COc1c(C#N)ccnc1O[C@@H]1CC[C@@H](CO)N(C(=O)c2cccnc2OCC(F)(F)F)C1` [Example 11, 2-{[(3R,6S)-6-(hydroxymethyl)-1-{[2-(2,2,2-trifluoroethoxy)pyridin-3-yl]carbonyl}piperidin-3-yl]oxy}-3-methoxypyridine-4-carbonitrile], the IC50 at human orexin-2 receptor came out at 9 nM; at hOX1R (setting [1]), 4080 nM.

For the compound `COc1c(C#N)ccnc1O[C@@H]1CC[C@@H](CO)N(C(=O)c2cccnc2OC(C)C)C1` [Example 12, 2-{[(3R,6S)-6-(hydroxymethyl)-1-{[2-(1-methylethoxy)pyridin-3-yl]carbonyl}piperidin-3-yl]oxy}-3-methoxypyridine-4-carbonitrile], the values for the 50% inhibitory concentration (IC50) on human orexin-2 receptor and on hOX1R (setting [1]) were 27 nM and over 10000 nM, respectively.

In the case of `COc1c(C#N)ccnc1O[C@@H]1CC[C@@H](CO)N(C(=O)c2ccccc2OC(F)F)C1` [Example 13, 2-{[(3R,6S)-1-{[2-(difluoromethoxy)phenyl]carbonyl}-6-(hydroxymethyl)piperidin-3-yl]oxy}-3-methoxypyridine-4-carbonitrile], the IC50 on human orexin-2 receptor is 39 nM; at hOX1R (setting [1]), over 10000 nM.

With `COc1c(C#N)ccnc1O[C@@H]1CC[C@@H](CO)N(C(=O)c2ccccc2OC(F)(F)F)C1` [Example 14, 2-{[(3R,6S)-(hydroxymethyl)-1-{[2-(trifluoromethoxy)phenyl]carbonyl}piperidin-3-yl]oxy}-3-methoxypyridine-4-carbonitrile], the IC50 is 14 nM at human orexin-2 receptor and over 10000 nM on hOX1R (setting [1]).

`CC(C)(O)[C@@H]1CC[C@@H](Oc2cc(C#N)ccn2)CN1C(=O)c1ccccc1-n1nccn1` [Example 15, 2-{[(3R,6S)-6-(1-Hydroxy-1-methylethyl)-1-{[2-(2H-1,2,3-triazol-2-yl)phenyl]carbonyl}-piperidin-3-yl]oxy}pyridine-4-carbonitrile]: the IC50 was 31 nM at human orexin-2 receptor and over 10000 nM at hOX1R (setting [1]).

Regarding `Cc1c(C#N)ccnc1O[C@@H]1CC[C@@H](C(C)(C)O)N(C(=O)c2ccccc2-n2nccn2)C1` [Example 16, 2-{[(3R,6S)-6-(1-hydrox-1-methylethyl)-1-{[2-(2H-1,2,3-triazol-2-yl)phenyl]carbonyl}piperidin-3-yl]oxy}-3-methylpyridine-4-carbonitrile], the IC50 at human orexin-2 receptor amounted to 27 nM; at hOX1R (setting [1]) it was 1330 nM.
